Molecular target: T1, human CRHR2-alpha (Homo sapiens, UniProt Q13324)
T1 sequence (Q13324 1-411): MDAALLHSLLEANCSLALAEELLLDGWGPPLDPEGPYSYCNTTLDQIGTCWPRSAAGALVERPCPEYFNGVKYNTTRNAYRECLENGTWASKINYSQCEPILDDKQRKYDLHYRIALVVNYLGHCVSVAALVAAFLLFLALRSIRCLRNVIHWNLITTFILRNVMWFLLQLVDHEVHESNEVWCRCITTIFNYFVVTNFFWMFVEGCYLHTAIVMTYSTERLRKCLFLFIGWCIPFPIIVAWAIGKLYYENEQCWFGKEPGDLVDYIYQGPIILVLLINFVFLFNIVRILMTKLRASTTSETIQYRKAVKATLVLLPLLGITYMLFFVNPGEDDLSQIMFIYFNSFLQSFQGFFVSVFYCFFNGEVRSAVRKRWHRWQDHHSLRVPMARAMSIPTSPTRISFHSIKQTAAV
Assay: cAMP functional assay for human CRHR2 (LANCE Ultra cAMP, TR-FRET)
Format: cell-based
Details: CHO-K1 cells expressing human CRHR2-alpha, agonist human urocortin2 at EC80, cAMP; read-out: IC50 against CRHR2
Method in brief: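 IC50 values derive from percent inhibition of EC80 agonist-stimulated cAMP in CHO-K1 transfectants, with 0.5 mM IBMX present; the CRHR2 line was stimulated by human urocortin2 and the CRHR1 line by CRF.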

| SMILES | IC50 [nM] |
| --- | --- |
| COCCNc1ccc(-n2c(=O)n(C[C@H]3CC[C@H](NC(=O)c4cc(Cl)cnc4C(F)F)CC3)c3ccccc32)cn1 [Example 572, 5-chloro-2-(difluoromethyl)-N-((1r,4r)-4-((3-(6-((2-methoxyethyl)amino)pyridin-3-yl)-2-oxo-2,3-dihydro-1H-benzo[d]imidazol-1-yl)methyl)cyclohexyl)nicotinamide] | < 300 |
| CNc1cc(-n2c(=O)n(C[C@H]3CC[C@H](NC(=O)c4cc(Cl)cnc4C)CC3)c3ccccc32)ccn1 [Example 573, 5-chloro-2-methyl-N-((1r,4r)-4-((3-(2-(methylamino)pyridin-4-yl)-2-oxo-2,3-dihydro-1H-benzo[d]imidazol-1-yl)methyl)cyclohexyl)nicotinamide] | < 300 |
| CNc1ccc(-n2c(=O)n(C[C@H]3CC[C@H](NC(=O)c4cc(Cl)cnc4C)CC3)c3ccccc32)nc1 [Example 574, 5-chloro-2-methyl-N-((1r,4r)-4-((3-(5-(methylamino)pyridin-2-yl)-2-oxo-2,3-dihydro-1H-benzo[d]imidazol-1-yl)methyl)cyclohexyl)nicotinamide] | < 300 |
| Cc1n[nH]c2ccc(-n3c(=O)n(C[C@H]4CC[C@H](NC(=O)c5cc(Cl)cnc5C(F)F)CC4)c4cccnc43)cc12 [Example 576, 5-chloro-2-(difluoromethyl)-N-((1r,4r)-4-((3-(3-methyl-1H-indazol-5-yl)-2-oxo-2,3-dihydro-1H-imidazo[4,5-b]pyridin-1-yl)methyl)cyclo-hexyl)nicotinamide] | < 300 |
| Cc1c[nH]c2ncc(-n3c(=O)n(C[C@H]4CC[C@H](NC(=O)c5cc(Cl)cnc5C(F)F)CC4)c4ncccc43)cc12 [Example 578, 5-chloro-2-(difluoromethyl)-N-((1r,4r)-4-((1-(3-methyl-1H-pyrrolo[2,3-b]pyridin-5-yl)-2-oxo-1H-imidazo[4,5-b]pyridin-3(2H)-yl)methyl)cyclohexyl)nicotinamide] | < 300 |
| Cc1ncc(Cl)cc1C(=O)N[C@H]1CC[C@H](Cn2c(=O)n(-c3ccc(-c4cnn(C)c4)cc3)c3ccccc32)CC1 [Example 579, 5-chloro-2-methyl-N-((1r,4r)-4-((3-(4-(1-methyl-1H-pyrazol-4-yl)phenyl)-2-oxo-2,3-dihydro-1H-benzo[d]imidazol-1-yl)methyl)cyclo-hexyl)nicotinamide] | < 300 |
| Cc1ncc(Cl)cc1C(=O)N[C@H]1CC[C@H](Cn2c(=O)n(-c3ccc(-c4cncs4)cc3)c3ccccc32)CC1 [Example 580, 5-chloro-2-methyl-N-((1r,4r)-4-((2-oxo-3-(4-(thiazol-5-yl)phenyl)-2,3-dihydro-1H-benzo[d]imidazol-1-yl)methyl)cyclohexyl)nicotinamide] | < 300 |
| Cc1ncc(Cl)cc1C(=O)N[C@H]1CC[C@H](Cn2c(=O)n(-c3ccc(-c4cn[nH]c4)cc3)c3ccccc32)CC1 [Example 581, N-((1r,4r)-4-((3-(4-(1H-pyrazol-4-yl)phenyl)-2-oxo-2,3-dihydro-1H-benzo[d]imidazol-1-yl)methyl)cyclohexyl)-5-chloro-2-methylnicotinamide] | < 300 |
| CNC(=O)c1ccc(-n2c(=O)n(C[C@H]3CC[C@H](NC(=O)c4cc(Cl)cnc4CF)CC3)c3ccccc32)cn1 [Example 582, 5-(3-(((1r,4r)-4-(5-chloro-2-(fluoromethyl)nicotina-mido)cyclohexyl)methyl)-2-oxo-2,3-dihydro-1H-benzo[d]imidazol-1-yl)-N-methylpicolinamide] | < 300 |
| Cc1noc2cc(-n3c(=O)n(C[C@H]4CC[C@H](NC(=O)c5cc(Cl)cnc5C(F)F)CC4)c4cccnc43)ccc12 [Example 583, 5-chloro-2-(difluoromethyl)-N-((1r,4r)-4-((3-(3-methyl-benzo[d]isoxazol-6-yl)-2-oxo-2,3-dihydro-1H-imidazo [4,5-b]pyridin-1-yl)methyl)cyclohexyl)nicotinamide] | < 300 |
| O=C(N[C@H]1CC[C@H](Cn2c(=O)n(-c3ccc(N4CC5(COC5)CC4=O)nc3)c3ccccc32)CC1)c1cc(Cl)cnc1C(F)F [Example 584, 5-chloro-2-(difluoromethyl)-N-((1r,4r)-4-((2-oxo-3-(6-(7-oxo-2-oxa-6-azaspiro[3,4]octan-6-yl)pyridin-3-yl)-2,3-dihydro-1H-benzo[d]imidazol-1-yl)methyl)cyclohexyl) nicotinamide] | < 300 |
| O=C(NC1CC1)c1ccc(-n2c(=O)n(C[C@H]3CC[C@H](NC(=O)c4cc(Cl)cnc4C(F)F)CC3)c3ccccc32)cn1 [Example 585, 5-(3-(((1r,4r)-4-(5-chloro-2-(difluoromethyl)nicotinamido)cyclohexyl)methyl)-2-oxo-2,3-dihydro-1H-benzo[d]imidazol-1-yl)-N-cyclopropyl-picolinamide] | < 300 |
| COCCNc1ccc(-n2c(=O)n(C[C@H]3CC[C@H](NC(=O)c4cc(Cl)cnc4C)CC3)c3ccccc32)cn1 [Example 593, 5-chloro-N-((1r,4r)-4-((3-(6-((2-methoxyethyl)amino)pyridin-3-yl)-2-oxo-2,3-dihydro-1H-benzo[d]imidazol-1-yl)methyl)cyclo-hexyl)-2-methylnicotinamide] | < 300 |
| CNc1ccc(-n2c(=O)n(C[C@H]3CC[C@H](NC(=O)c4cc(Cl)cnc4C)CC3)c3cc(F)ccc32)cn1 [Example 624, 5-chloro-N-((1r,4r)-4-((6-fluoro-3-(6-(methylamino)pyridin-3-yl)-2-oxo-2,3-dihydro-1H-benzo[d]imidazol-1-yl)methyl)cyclohexyl)-2-methylnicotinamide] | < 300 |
| CNc1ccc(-n2c(=O)n(C[C@H]3CC[C@H](NC(=O)c4cc(Cl)cnc4C)CC3)c3ccc(F)cc32)cn1 [Example 625, 5-chloro-N-((1r,4r)-4-((5-fluoro-3-(6-(methylamino)pyridin-3-yl)-2-oxo-2,3-dihydro-1H-benzo[d]imidazol-1-yl)methyl)cyclohexyl)-2-methylnicotinamide] | < 300 |
| CNc1ccc(-n2c(=O)n(C[C@H]3CC[C@H](NC(=O)c4cc(Cl)cnc4C(F)F)CC3)c3ccc(F)cc32)cn1 [Example 626, 5-chloro-2-(difluoromethyl)-N-((1r,4r)-4-((5-fluoro-3-(6-(methylamino)pyridin-3-yl)-2-oxo-2,3-dihydro-1H-benzo [d]imidazol-1-yl)methyl)cyclohexyl)nicotinamide] | < 300 |
| N#Cc1cc(F)ccc1-n1c(=O)n(C[C@H]2CC[C@H](NC(=O)c3cc(Cl)cnc3C(F)F)CC2)c2ccccc21 [Example 627, 5-chloro-N-((1r,4r)-4-((3-(2-cyano-4-fluorophenyl)-2-oxo-2,3-dihydro-1H-benzo[d]imidazol-1-yl)methyl)cyclohexyl)-2-(difluoromethyl)nicotinamide] | < 300 |
| CNC(=O)c1ccc(-n2c(=O)n(C[C@H]3CC[C@H](NC(=O)c4cc(Cl)cnc4C(F)F)CC3)c3cccc(F)c32)cn1 [Example 628, 5-(3-(((1 r,4r)-4-(5-chloro-2-(difluoromethyl)nicotinamido)cyclohexyl)methyl)-7-fluoro-2-oxo-2,3-dihydro-1H-benzo [d]imidazol-1-yl)-N-methylpicolinamide] | < 300 |
| O=C(N[C@H]1CC[C@H](Cn2c(=O)n(-c3ccccc3Cl)c3cccnc32)CC1)c1cc(Cl)cnc1C(F)F [Example 630, 5-chloro-N-((1r,4r)-4-((1-(2-chlorophenyl)-2-oxo-1H-imidazo[4,5-b]pyridin-3(2H)-yl)methyl)cyclohexyl)-2-(difluoromethyl)nicotinamide] | < 300 |
| COc1ccc(Cl)c(-n2c(=O)n(C[C@H]3CC[C@H](NC(=O)c4cc(Cl)cnc4C(F)F)CC3)c3cnccc32)c1 [Example 631, 5-chloro-N-((1r,4r)-4-((1-(2-chloro-5-methoxyphenyl)-2-oxo-1H-imidazo[4,5-c]pyridin-3(2H)-yl)methyl)cyclohexyl)-2-(difluoromethyl) nicotinamide] | < 300 |
| Cc1ncc(Cl)cc1C(=O)N[C@H]1CC[C@H](Cn2c(=O)n(-c3ccc(-c4c[nH]nn4)cc3)c3ccccc32)CC1 [Example 633, N-((1r,4r)-4-((3-(4-(1H-1,2,3-triazol-4-yl)phenyl)-2-oxo-2,3-dihydro-1H-benzo[d]imidazol-1-yl)methyl)cyclohexyl)-5-chloro-2-methylnicotinamide] | < 300 |
| Cc1ncc(Cl)cc1C(=O)N[C@H]1CC[C@H](Cn2c(=O)n(-c3ccc(-c4cocn4)cc3)c3ccccc32)CC1 [Example 635, 5-chloro-2-methyl-N-((1r,4r)-4-((3-(4-(oxazol-4-yl)phenyl)-2-oxo-2,3-dihydro-1H-benzo [d]imidazol-1-yl)methyl)cyclo-hexyl)nicotinamide] | < 300 |
| Cc1ncc(Cl)cc1C(=O)N[C@H]1CC[C@H](Cn2c(=O)n(-c3cncc(-n4cccn4)c3)c3ccccc32)CC1 [Example 636, N-((1r,4r)-4-((3-(5-(1H-pyrazol-1-yl)pyridin-3-yl)-2-oxo-2,3-dihydro-1H-benzo[d]imidazol-1-yl)methyl)cyclohexyl)-5-chloro-2-methylnicotinamide] | < 300 |
| Cc1ncc(Cl)cc1C(=O)N[C@H]1CC[C@H](Cn2c(=O)n(-c3ccc(-n4cccn4)nc3)c3ccccc32)CC1 [Example 637, N-((1r,4r)-4-((3-(6-(1H-pyrazol-1-yl)pyridin-3-yl)-2-oxo-2,3-dihydro-1H-benzo[d]imidazol-1-yl)methyl)cyclohexyl)-5-chloro-2-methylnicotinamide] | < 300 |
